Test results: US20040200144A1, “Plant growth regulator and a method of producing the regulator” (Dainichiseika Color & Chemicals Mfg. Co., Ltd., priority 2003, published 2004)

How the values were obtained:
Type in all cases: in vivo
radish young plants = test: Dwarfing test of radish young plant; conditions: for Plant Height / Dwarfing Rate: 5 ml per cell on 4th day, measured 20th day; for Dwarfing Rate: vs comparative group
Protocol: (§1) 50 g of sodium tripolyphosphate was dissolved in 400 ml of distilled water at 80° C., 17.5 g of cinnamic acid was added to the sodium tripolyphosphate solution and dissolved by stirring, the resultant solution was diluted with distilled water until the total volume of solution was 500 ml, and thus 3.5% cinnamic acid aqueous solution (pH 6.5) was prepared. The aqueous solution was further diluted with distilled water 70 times or 17.5 times, and 0.05% cinnamic acid aqueous solution and 0.2% cinnamic acid aqueous solution were prepared, respectively.
(§2) Nursery soil for house use was filled into paper joint pots (each with 24 cells: 34×43×50 mm/cell), water was sufficiently given to the soil, and seeds of carrots were sowed. After seeding, the pot was placed in the same greenhouse as described above to sprout. Subsequently, on the 5th day, the cinnamic aqueous acid solutions were added to the nursery soil in the joint pots. One of the joint pots (24 cells) was prepared as a 0.05% cinnamic acid aqueous solution addition group, and 5 ml of the 0.05% cinnamic acid aqueous solution was added to the nursery soil of each cell. Another one of the join pots was prepared as a 0.2% cinnamic acid aqueous solution addition group, and 5 ml of the 0.2% cinnamic acid aqueous solution was added to the nursery soil of each cell. The other one of the joint pots was prepared as a comparative group in which 5 ml of water is added to each cell, instead of the cinnamic acid aqueous solution. Subsequently, the cultivation of carrot young plants in each group was continued under general conditions. On the 27th day, the heights of young plants in each group were measured, the dwarfing rate (%) was calculated, and the dwarfing effect of cinnamic acid aqueous solution on carrot young plants was examined. […].
In the same way as in Example 12 except that seeds of radish were sowed, the dwarfing effect of cinnamic acid aqueous solution on radish young plants was examined. […]

Poinsettia young plants = test: Dwarfing test of poinsettia young plant; conditions: for Plant Height / Dwarfing Rate: 100 ml per pot to nursery soil on 49th and 78th days, measured 93rd day; for Dwarfing Rate: vs comparative group
Protocol: 18.4 g of potassium hydroxide was dissolved in 400 ml of distilled water at 20° C., 50 g of cinnamic acid was added to the potassium hydroxide solution and dissolved by stirring, the resultant solution was diluted with distilled water until the total volume of solution was 500 ml, and thus a cinnamic acid aqueous solution (pH 8.8) was prepared in a concentration of 10%. The aqueous solution was further diluted with distilled water 33.3 times or 20 times, and thus a cinnamic acid aqueous solution in a concentration of 0.3% or 0.5% was prepared, respectively.
Poinsettia young plants with heights of about 10 cm were planted and fixed in pots (diameter of 14.5 cm and depth of 14.5 cm), and cultivated continuously. On the 49th and 78th days, 100 ml of 0.3% or 0.5% cinnamic acid aqueous solution prepared as described above was added to the nursery soil of each of 30 pots, and thus 0.3% cinnamic acid aqueous solution addition group and 0.5% cinnamic acid aqueous solution addition group were obtained. Further, 30 pots were prepared as a comparative group on which general watering was performed. The cultivation of young plants of each group was continued. On the 93rd day, the length from a surface of the soil of each cultivation pot to a head portion of the poinsettia young plant was measured, the dwarfing rate (%) was calculated using the following equation, and thus the dwarfing effect of cinnamic acid aqueous solution was examined (the same way was applied to following examples).
Dwarfing rate (%)=[(the plant height of the comparative group)−(the plant height of an addition group)/the plant height of the comparative group]×100
In addition, “plant height” in all the tables below was an average of heights from a surface of the soil of a pot used in each test to a head portion of the plant.

onion young plants = test: Dwarfing test of onion young plant; conditions: for Plant Height / Dwarfing Rate: 5 ml per cell on 5th day, measured 27th day; for Dwarfing Rate: vs comparative group
Protocol: as §1, §2
In the same way as in Example 5 except that seeds of onion were sowed, the dwarfing effect of cinnamic acid aqueous solution on onion young plants was examined. […]

cucumber young plants = test: Dwarfing test of cucumber young plant; conditions: for Plant Height / Dwarfing Rate: 5 ml per cell on 7th day, measured 20th day; for Dwarfing Rate: vs comparative group
Protocol: After seeding, the pot was placed in the same greenhouse as described above to sprout. Subsequently, on the 5th day, the cinnamic aqueous acid solutions were added to the nursery soil in the joint pots. One of the joint pots (24 cells) was prepared as a 0.05% cinnamic acid aqueous solution addition group, and 5 ml of the 0.05% cinnamic acid aqueous solution was added to the nursery soil of each cell. Another one of the join pots was prepared as a 0.2% cinnamic acid aqueous solution addition group, and 5 ml of the 0.2% cinnamic acid aqueous solution was added to the nursery soil of each cell. […] Subsequently, the cultivation of carrot young plants in each group was continued under general conditions. On the 27th day, the heights of young plants in each group were measured, the dwarfing rate (%) was calculated, and the dwarfing effect of cinnamic acid aqueous solution on carrot young plants was examined. From the results in Table 5, it became evident that the 0.05% and 0.2% cinnamic acid aqueous solutions are effective in dwarfing carrot young plants. In the same way as in Example 5 except that seeds of cauliflower were sowed, the cinnamic acid solutions were added to the nursery soil in the joint pot on the 4th day, and that heights of young plants in each group were measured on the 20th day, the dwarfing effect of cinnamic acid aqueous solution on cauliflower young plants was examined. From the results in Table 12, it became evident that the cinnamic acid aqueous solutions are effective in dwarfing cauliflower young plants. In the same way as in Example 12 except that seeds of tomato were sowed, and that the cinnamic acid solutions were added to the nursery soil of the joint pot on the 7th day, the dwarfing effect of cinnamic acid aqueous solution on tomato young plants was examined. From the results in Table 17, it became evident that the cinnamic acid aqueous solutions are effective in dwarfing tomato young plants. In the same way as in Example 17 except that seeds of cucumber were sowed, the dwarfing effect of cinnamic acid aqueous solution on cucumber young plants was examined. From the results in Table 18, it became evident that the cinnamic acid aqueous solutions are effective in dwarfing cucumber young plants.

O=C(O)C=Cc1ccccc1 [cinnamic acid]
Plant Height (radish young plants; 0.05% aqueous solution): 8.1 cm | Dwarfing Rate (radish young plants; 0.05% aqueous solution): 11.0% | Plant Height (radish young plants; 0.2% aqueous solution): 7.1 cm | Dwarfing Rate (radish young plants; 0.2% aqueous solution): 22.0% | dwarfing effect (radish young plants; radish young plants, 0.05% and 0.2% aqueous solutions): effective | Plant Height (Poinsettia young plants; 0.3% aqueous solution): 19.2 cm | Dwarfing Rate (Poinsettia young plants; 0.3% aqueous solution): 17.6% | Plant Height (Poinsettia young plants; 0.5% aqueous solution): 18.1 cm | Dwarfing Rate (Poinsettia young plants; 0.5% aqueous solution): 22.3% | dwarfing effect (Poinsettia young plants; poinsettia young plants, 0.3% and 0.5% aqueous solutions): effective | Plant Height (onion young plants; 0.05% aqueous solution): 8.0 cm | Dwarfing Rate (onion young plants; 0.05% aqueous solution): 15.8% | Plant Height (onion young plants; 0.2% aqueous solution): 7.5 cm | Dwarfing Rate (onion young plants; 0.2% aqueous solution): 21.1% | dwarfing effect (onion young plants; onion young plants, 0.05% and 0.2% aqueous solutions): effective | Plant Height (cucumber young plants; 0.05% aqueous solution): 7.8 cm | Dwarfing Rate (cucumber young plants; 0.05% aqueous solution): 21.2% | Plant Height (cucumber young plants; 0.2% aqueous solution): 6.2 cm | Dwarfing Rate (cucumber young plants; 0.2% aqueous solution): 37.4% | dwarfing effect (cucumber young plants; cucumber young plants, 0.05% and 0.2% aqueous solutions): effective
